According to paper PMC3371665 (Journal of Medicinal Chemistry, 2012):

Legend:
[1] = molecular target: T1, mA1AR (Mus musculus, UniProt Q60612); settings: read-out: Affinity (Ki) mA1; ref Melman et al.[21]; cited from earlier work
T1 sequence (Q60612 1-326): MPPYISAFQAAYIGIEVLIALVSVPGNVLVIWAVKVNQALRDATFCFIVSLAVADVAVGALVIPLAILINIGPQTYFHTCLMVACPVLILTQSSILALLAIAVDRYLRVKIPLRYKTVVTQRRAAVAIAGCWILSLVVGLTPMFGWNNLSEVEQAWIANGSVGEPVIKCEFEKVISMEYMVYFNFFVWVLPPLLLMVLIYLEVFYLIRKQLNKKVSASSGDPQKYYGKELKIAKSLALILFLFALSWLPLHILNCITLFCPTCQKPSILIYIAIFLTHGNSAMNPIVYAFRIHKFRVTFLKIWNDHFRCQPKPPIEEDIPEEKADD

[2] = molecular target: mA2AAR (Mus musculus, UniProt Q60613); settings: read-out: Affinity (Ki) mA2A; ref Melman et al.[21]; cited from earlier work
Chain of mA2AAR (Q60613 whole entry): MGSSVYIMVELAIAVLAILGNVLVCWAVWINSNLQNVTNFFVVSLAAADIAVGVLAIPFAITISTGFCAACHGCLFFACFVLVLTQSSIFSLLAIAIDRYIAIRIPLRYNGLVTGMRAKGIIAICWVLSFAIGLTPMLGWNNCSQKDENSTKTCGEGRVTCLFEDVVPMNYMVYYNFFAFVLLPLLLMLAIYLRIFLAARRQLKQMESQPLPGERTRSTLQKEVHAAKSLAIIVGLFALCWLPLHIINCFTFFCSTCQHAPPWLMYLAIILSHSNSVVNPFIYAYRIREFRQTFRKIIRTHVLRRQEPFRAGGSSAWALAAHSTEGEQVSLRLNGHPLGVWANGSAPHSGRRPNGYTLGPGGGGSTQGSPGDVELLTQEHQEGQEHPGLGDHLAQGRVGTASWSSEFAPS

[3] = molecular target: T2, mA3AR (Mus musculus, UniProt Q61618); settings: read-out: Affinity (Ki) mA3; ref Melman et al.[21]; cited from earlier work
T2 sequence (Q61618 1-319): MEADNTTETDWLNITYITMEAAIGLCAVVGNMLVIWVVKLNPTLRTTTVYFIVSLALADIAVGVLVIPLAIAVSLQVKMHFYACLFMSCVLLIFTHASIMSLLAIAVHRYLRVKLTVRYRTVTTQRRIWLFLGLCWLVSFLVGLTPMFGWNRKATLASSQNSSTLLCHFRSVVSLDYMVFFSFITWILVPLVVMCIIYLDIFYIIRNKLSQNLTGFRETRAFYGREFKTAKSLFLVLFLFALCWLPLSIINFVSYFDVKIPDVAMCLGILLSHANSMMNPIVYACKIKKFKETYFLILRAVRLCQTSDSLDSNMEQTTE

[4] = molecular target: T3, hA3AR (Homo sapiens, UniProt P0DMS8); assay: Radioligand binding at hA3AR
T3 sequence (P0DMS8 1-318): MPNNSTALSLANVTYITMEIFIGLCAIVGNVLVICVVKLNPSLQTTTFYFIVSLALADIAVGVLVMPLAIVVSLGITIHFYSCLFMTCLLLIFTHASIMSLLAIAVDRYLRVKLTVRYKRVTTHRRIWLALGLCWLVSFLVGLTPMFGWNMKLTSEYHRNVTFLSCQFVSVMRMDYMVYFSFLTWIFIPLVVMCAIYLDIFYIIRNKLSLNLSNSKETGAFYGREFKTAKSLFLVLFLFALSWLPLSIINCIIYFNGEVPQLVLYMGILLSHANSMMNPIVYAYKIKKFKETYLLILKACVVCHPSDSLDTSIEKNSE

[5] = molecular target: T4, hA1AR (Homo sapiens, UniProt P30542); assay: Radioligand binding at hA1AR
T4 sequence (P30542 1-326): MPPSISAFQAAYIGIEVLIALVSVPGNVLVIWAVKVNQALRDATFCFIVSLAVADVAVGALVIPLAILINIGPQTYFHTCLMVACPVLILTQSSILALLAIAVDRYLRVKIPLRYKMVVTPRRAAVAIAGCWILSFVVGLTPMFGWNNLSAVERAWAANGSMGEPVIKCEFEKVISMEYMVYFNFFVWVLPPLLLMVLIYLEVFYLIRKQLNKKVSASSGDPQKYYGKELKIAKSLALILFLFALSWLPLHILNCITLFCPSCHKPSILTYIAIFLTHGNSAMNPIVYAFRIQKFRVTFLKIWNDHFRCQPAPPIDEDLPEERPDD

[6] = molecular target: hA2AAR (Homo sapiens, UniProt P29274); assay: Radioligand binding at hA2AAR
Chain of hA2AAR (P29274 whole entry): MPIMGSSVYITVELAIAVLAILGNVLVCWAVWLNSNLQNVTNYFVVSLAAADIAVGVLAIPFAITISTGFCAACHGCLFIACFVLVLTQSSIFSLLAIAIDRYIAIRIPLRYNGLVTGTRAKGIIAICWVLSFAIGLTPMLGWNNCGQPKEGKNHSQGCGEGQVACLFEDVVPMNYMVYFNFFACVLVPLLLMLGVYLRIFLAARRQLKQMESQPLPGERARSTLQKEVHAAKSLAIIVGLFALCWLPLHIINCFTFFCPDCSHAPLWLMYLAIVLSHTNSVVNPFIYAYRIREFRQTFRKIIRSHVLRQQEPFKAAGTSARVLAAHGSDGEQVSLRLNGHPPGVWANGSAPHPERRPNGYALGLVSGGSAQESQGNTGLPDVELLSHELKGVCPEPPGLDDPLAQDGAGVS

[7] = molecular target: T3, hA3AR; type: cell-based; settings: at 10 μM

What does the source list for `CNC(=O)[C@@]12C[C@@H]1[C@@H](n1cnc3c(NCc4cccc(I)c4)nc(Cl)nc31)[C@H](O)[C@@H]2O` [Compound 4]?
Ki [1]: 7.32 ± 1.5 nM; Ki [2]: 5350 nM; Ki [3]: 0.8 ± 0.14 nM

With `CNC(=O)[C@@]12C[C@@H]1[C@@H](n1cnc3c(NC)nc(C#Cc4ccc(C(C)(C)C)cc4)nc31)[C@H](O)[C@@H]2O` [Compound 22, (1S,2R,3S,4R,5S)-4-(2-((4-tert-Butylphenyl)ethynyl)-6-(methylamino)-9H-purin-9-yl)-2,3-dihydroxy-N-methylbicyclo[3.1.0]hexane-1-carboxamide] as the compound, how does the “reduction of A3AR binding affinity compared to the H analogue 9” value [4] read?
The value was 12 fold.

For `CNC(=O)[C@@]12C[C@@H]1[C@@H](n1cnc3c(NCc4cccc(Cl)c4)nc(C#Cc4ccccc4)nc31)[C@H](O)[C@@H]2O` [Compound 27, (1S,2R,3S,4R,5S)-4-(6-(3-Chlorobenzylamino)-2-(phenylethynyl)-9H-purin-9-yl)-2,3-dihydroxy-N-methylbicyclo[3.1.0]hexane-1-carboxamide], which Ki [5] is on record?
The Ki was greater than 10000 nM.

Which results are given for `CNC(=O)[C@@]12C[C@@H]1[C@@H](n1cnc3c(NC)nc(C#Cc4ccccc4)nc31)[C@H](O)[C@@H]2O` [Compound 9, (1S,2R,3S,4R,5S)-2,3-Dihydroxy-N-methyl-4-(6-(methylamino)-2-(phenylethynyl)-9H-purin-9-yl)bicyclo[3.1.0]hexane-1-carboxamide]?
inhibition at 10 µM ([5]; read-out: % inhibition of radioligand binding hA1, at 10 μM, n = 3): < 20%; inhibition at 10 µM ([6]; read-out: % inhibition of radioligand binding hA2A, at 10 μM, n = 3): < 20%

With `CNC(=O)[C@@]12C[C@@H]1[C@@H](n1cnc3c(NCc4cccc(Cl)c4)nc(C#Cc4ccc(F)c(F)c4)nc31)[C@H](O)[C@@H]2O` [Compound 31, (1S,2R,3S,4R,5S)-4-(6-(3-Chlorobenzylamino)-2-((3,4-difluorophenyl)ethynyl)-9H-purin-9-yl)-2,3-dihydroxy-N-methylbicyclo[3.1.0]hexane-1-carboxamide] as the compound, how does the “agonist type at the A3AR” value [7] read?
Its value is “full agonist”.

With `CNC(=O)[C@@]12C[C@@H]1[C@@H](n1cnc3c(NCc4cccc(Cl)c4)nc(C#Cc4ccc(-c5ccccc5)cc4)nc31)[C@H](O)[C@@H]2O` [Compound 34, (1S,2R,3S,4R,5S)-4-(2-(Biphenyl-4-ylethynyl)-6-(3-chlorobenzylamino)-9H-purin-9-yl)-2,3-dihydroxy-N-methylbicyclo[3.1.0]hexane-1-carboxamide] as the compound, how does the “activity at A1” value [5] read?
Its value is “inactive”.

What about the “activity at A2A” value [6] of the same compound?
Its value is “inactive”.

With `CNC(=O)[C@@]12C[C@@H]1[C@@H](n1cnc3c(NC)nc(C#Cc4ccc(F)cc4)nc31)[C@H](O)[C@@H]2O` [Compound 13, (1S,2R,3S,4R,5S)-4-(2-((4-Fluorophenyl)ethynyl)-6-(methylamino)-9H-purin-9-yl)-2,3-dihydroxy-N-methylbicyclo[3.1.0]hexane-1-carboxamide] as the compound, how does the Ki ([4]; Affinity (Ki) hA3, [125I]I-AB-MECA, CHO cells, n = 3–5) read?
The Ki was roughly 0.6 nM.
